Here are results for 29 compounds from ChEMBL document CHEMBL5046318, “Development of 6-Methanesulfonyl-8-nitrobenzothiazinone Based Antitubercular Agents” (ACS Med Chem Lett, 2022).

Converted amounts (≈) assume the structure as drawn. A value given as a limit tells only on which side of the number the result lay.

The nature of series [1]: Metabolic stability in human liver microsomes assessed as intrinsic clearance at 1 uM preincubated for 10 mins followed by NADPH addition and further incubated upto 60 mins by LC-MS/MS analysis. The format is ADME, Microsome. The settings on record: time 70 min, read-out: CLH.
Series [2] deals with T1, Decaprenylphosphoryl-beta-D-ribose oxidase (Mycobacterium tuberculosis (strain ATCC 25618 / H37Rv), UniProt P9WJF1).
T1 sequence (P9WJF1 whole entry): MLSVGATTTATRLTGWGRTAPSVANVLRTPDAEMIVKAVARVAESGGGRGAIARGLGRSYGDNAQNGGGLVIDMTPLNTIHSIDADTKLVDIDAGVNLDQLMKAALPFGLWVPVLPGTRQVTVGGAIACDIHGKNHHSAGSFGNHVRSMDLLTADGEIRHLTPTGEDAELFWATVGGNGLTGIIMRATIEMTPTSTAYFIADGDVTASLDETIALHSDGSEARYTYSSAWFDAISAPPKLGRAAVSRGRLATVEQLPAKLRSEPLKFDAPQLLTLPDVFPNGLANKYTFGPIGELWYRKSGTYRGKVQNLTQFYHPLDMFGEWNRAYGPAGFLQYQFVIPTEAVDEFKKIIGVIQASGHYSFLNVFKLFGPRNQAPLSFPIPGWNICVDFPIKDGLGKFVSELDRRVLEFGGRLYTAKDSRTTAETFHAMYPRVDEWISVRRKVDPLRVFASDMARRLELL
Kind of series: Inhibition of Mycobacterium tuberculosis H37Rv recombinant DprE1 expressed in Escherichia coli assessed as formation of resorufin using FPR as substrate by Amplex Red hydrogen/peroxidase coupled assay.

Series [3] relates to Mycobacterium tuberculosis. As to the kind of experiment: Antitubercular activity against Mycobacterium tuberculosis H37Rv assessed as bacterial growth inhibition incubated for […] by MABA assay. The class given is functional. On the technique in general: Resazurin is reduced to fluorescent resorufin, in cell work by metabolically active cells.
A short description of series [4]: Metabolic stability in mouse liver microsomes assessed as half life at 1 uM preincubated for 10 mins followed by NADPH addition and further incubated upto 60 mins by LC-MS/MS analysis. The settings on record: time 70 min. The format is ADME, Microsome. (In general: Liver microsomes are vesicles of endoplasmic reticulum, rich in cytochrome P450 enzymes.)
A short description of series [5]: Plasma protein binding in human. The format is ADME, cell-free. The settings on record: read-out: PPB (converted).
Series [6] can be described thus: Metabolic stability in human liver microsomes assessed as half life at 1 uM preincubated for 10 mins followed by NADPH addition and further incubated upto 60 mins by LC-MS/MS analysis. The class given is ADME, Microsome. As to conditions: time 70 min.
Series [7] is described as follows: Thermodynamic solubility of compound at pH 7.4 aqueous phosphate buffer. The class given is physicochemical. As to conditions: read-out: Therm_solubility.
The nature of series [8]: Metabolic stability in mouse liver microsomes assessed as intrinsic clearance at 1 uM preincubated for 10 mins followed by NADPH addition and further incubated upto 60 mins by LC-MS/MS analysis. The settings on record: time 70 min, read-out: CLH. The class given is ADME, Microsome.

By IC50 is commonly meant the concentration needed to halve the response being measured. For orientation: MIC means the least concentration at which growth counts as inhibited. The half-life is how long it takes for the measured level to halve. Turning to `CS(=O)(=O)c1cc([N+](=O)[O-])c2sc(N3CCN(CC4CCC(F)(F)CC4)CC3)nc(=O)c2c1`, the CLint scaled at 1 µM in series [1] was 45.1 mL/min/kg; in series [8] it was 92.4 mL/min/kg. Also, the IC50 in series [2] was 1.1 µM. The MIC in series [3] came out at 0.03 µM (≈ 0.0151 µg/mL). For the same compound, the half-life at 1 µM is 59 min in series [4] and 38.6 min in series [6]. Further, the fraction unbound in series [5] was 0.021. Also, the solubility thermodynamic in series [7] was 0.81 µg/mL (≈ 1.61 µM).
Consider `CS(=O)(=O)c1cc([N+](=O)[O-])c2sc(N3CCN(CC4CCCCC4)C4(CC4)C3)nc(=O)c2c1`, for which the CLint scaled at 1 µM in series [1] turned out to be 77 mL/min/kg; in series [8] it was 163 mL/min/kg. In series [2], the half-maximal inhibitory concentration (IC50) amounted to 3.9 µM. In addition, the MIC in series [3] was 0.04 µM (≈ 0.0197 µg/mL). Further, the half-life at 1 µM in series [4] was found to be 33.5 min; in series [6] it was 22.6 min. For the same compound, the fraction unbound in series [5] is 0.016. In series [7], the solubility thermodynamic was 0.7 µg/mL (≈ 1.42 µM).
For the compound `CC(C)CN1CCCN(c2nc(=O)c3cc(S(C)(=O)=O)cc([N+](=O)[O-])c3s2)CC1`, the IC50 in series [2] was determined as 1.3 µM. Also, the minimum inhibitory concentration (MIC) in series [3] worked out at 0.07 µM (≈ 0.0308 µg/mL).
Regarding `CC(C)CN1CCN(c2nc(=O)c3cc(S(C)(=O)=O)cc([N+](=O)[O-])c3s2)CC12CC2`, the MIC in series [3] turned out to be 0.17 µM (≈ 0.0769 µg/mL).
`CS(=O)(=O)c1cc([N+](=O)[O-])c2sc(N3CCN(CC4CCCCC4)CC3)nc(=O)c2c1`: the CLint scaled at 1 µM worked out at 60.5 mL/min/kg in series [1] and 129 mL/min/kg in series [8]. Moreover, in series [2], the IC50 was found to be 0.05 µM. Besides, the minimal inhibitory concentration (MIC) in series [3] stood at 0.01 µM (≈ 0.00467 µg/mL). Further, the half-life at 1 µM in series [4] turned out to be 42.1 min; in series [6], 28.8 min. For the same compound, the fraction unbound in series [5] was 0.025.
As for `CS(=O)(=O)c1cc([N+](=O)[O-])c2sc(N3CCN(CC4CCCCC4)C(=O)C3)nc(=O)c2c1`, the minimal inhibitory concentration (MIC) in series [3] turned out to be 0.07 µM (≈ 0.0336 µg/mL).
On to `CS(=O)(=O)c1cc([N+](=O)[O-])c2sc(N3CCN(S(=O)(=O)c4cccs4)CC3)nc(=O)c2c1`, for which, in series [3], the MIC turned out to be 108 µM (≈ 55.8 µg/mL).
On the same count and under the same terms, next, `CS(=O)(=O)c1cc([N+](=O)[O-])c2sc(N3CCN(C(=O)c4ccccc4)CC3)nc(=O)c2c1`: greater than 64 µM; `CCS(=O)(=O)N1CCCN(c2nc(=O)c3cc(S(C)(=O)=O)cc([N+](=O)[O-])c3s2)CC1`: greater than 2 µM; `CS(=O)(=O)c1cc([N+](=O)[O-])c2sc(N3CCN(S(=O)(=O)c4ccccc4)CC3)nc(=O)c2c1`: 0.33 µM (≈ 0.168 µg/mL).
Take `CS(=O)(=O)c1cc([N+](=O)[O-])c2sc(N3CCN(CC4CCC(C(F)(F)F)CC4)CC3)nc(=O)c2c1` (configuration not stated): in series [3], the MIC is 1.87 µM (≈ 1 µg/mL).
For the compound `CS(=O)(=O)c1cc([N+](=O)[O-])c2sc(N3CCN(Cc4ccccc4)CC3)nc(=O)c2c1`, the MIC in series [3] is 0.21 µM (≈ 0.0967 µg/mL).
As for `CCS(=O)(=O)N1CCN(c2nc(=O)c3cc(S(C)(=O)=O)cc([N+](=O)[O-])c3s2)CC1`, the IC50 in series [2] amounted to 6.7 µM. Moreover, in series [3], the MIC worked out at 0.26 µM (≈ 0.12 µg/mL).
In the case of `CS(=O)(=O)c1cc([N+](=O)[O-])c2sc(N3CCCN(S(=O)(=O)c4ccccc4)CC3)nc(=O)c2c1`, in series [3], the MIC is greater than 3.5 µM.
Same read-out and setting: next, `CS(=O)(=O)c1cc([N+](=O)[O-])c2sc(N3CCCN(Cc4ccccc4)CC3)nc(=O)c2c1`: 0.48 µM (≈ 0.228 µg/mL).
As for `CS(=O)(=O)c1cc([N+](=O)[O-])c2sc(N3CCN(S(=O)(=O)C4CC4)CC3)nc(=O)c2c1`, in series [2], the concentration for half-maximal inhibition (IC50) was 7.1 µM. Further, the minimum inhibitory concentration (MIC) in series [3] stood at 0.3 µM (≈ 0.142 µg/mL).
The corresponding values for `CS(=O)(=O)c1cc([N+](=O)[O-])c2sc(N3CCCN(CC4CCCCC4)CC3)nc(=O)c2c1` are 1.1 µM and 0.07 µM (≈ 0.0336 µg/mL).
Consider `CS(=O)(=O)c1cc([N+](=O)[O-])c2sc(N3CCN(CC4CCSCC4)CC3)nc(=O)c2c1`, for which, in series [3], the minimal inhibitory concentration (MIC) is 0.1 µM (≈ 0.0485 µg/mL).
Same read-out and setting: next, `CS(=O)(=O)c1cc([N+](=O)[O-])c2sc(N3CCN(Cc4cccs4)CC3)nc(=O)c2c1`: 0.25 µM (≈ 0.117 µg/mL).
Same read-out and setting: under `CCCCCN1CCCN(c2nc(=O)c3cc(S(C)(=O)=O)cc([N+](=O)[O-])c3s2)CC1` stands 0.49 µM (≈ 0.223 µg/mL); under `CS(=O)(=O)c1cc([N+](=O)[O-])c2sc(N3CCN(C(=O)C4CCCCC4)CC3)nc(=O)c2c1`, 0.96 µM (≈ 0.461 µg/mL).
Regarding `CS(=O)(=O)c1cc([N+](=O)[O-])c2sc(N3CCCN(S(=O)(=O)C4CC4)CC3)nc(=O)c2c1`, the IC50 in series [2] was 16.7 µM. Moreover, the MIC in series [3] amounted to 0.94 µM (≈ 0.459 µg/mL).
For the compound `CS(=O)(=O)c1cc([N+](=O)[O-])c2sc(N3CCN(CC4CCOCC4)CC3)nc(=O)c2c1`, the IC50 in series [2] worked out at 10.3 µM. Also, the MIC in series [3] was determined as 0.51 µM (≈ 0.239 µg/mL).
Regarding `CCCCS(=O)(=O)N1CCCN(c2nc(=O)c3cc(S(C)(=O)=O)cc([N+](=O)[O-])c3s2)CC1`, in series [3], the MIC is greater than 2 µM.
As to `CS(=O)(=O)c1cc([N+](=O)[O-])c2sc(N3CCCN(CC4CCCC4)CC3)nc(=O)c2c1`, the IC50 in series [2] stood at 4.4 µM. In addition, the MIC in series [3] is 0.15 µM (≈ 0.07 µg/mL).
As for `CS(=O)(=O)c1cc([N+](=O)[O-])c2sc(N3CCCN(S(=O)(=O)c4cccs4)CC3)nc(=O)c2c1`, the MIC in series [3] is greater than 3.5 µM.
As for `CCCCS(=O)(=O)N1CCN(c2nc(=O)c3cc(S(C)(=O)=O)cc([N+](=O)[O-])c3s2)CC1`, in series [2], the IC50 was determined as 1.4 µM. Also, the minimum inhibitory concentration (MIC) in series [3] turned out to be 0.09 µM (≈ 0.0442 µg/mL).
For the compound `CC(C)CCN1CCCN(c2nc(=O)c3cc(S(C)(=O)=O)cc([N+](=O)[O-])c3s2)CC1`, in series [3], the MIC is 0.49 µM (≈ 0.223 µg/mL).
Consider `O=c1nc(N2CCN(CC3CCCCC3)CC2)sc2c([N+](=O)[O-])cc(C(F)(F)F)cc12` [MACOZINONE], for which the CLint scaled at 1 µM in series [1] was 28.1 mL/min/kg; in series [8], 174 mL/min/kg. For the same compound, the results for the half-life at 1 µM in series [4] and in series [6] were 31.5 min and 62.1 min, respectively. Moreover, the fraction unbound in series [5] is less than 0.001. Moreover, in series [7], the solubility thermodynamic is less than 0.01 µg/mL.
